# Experimental data reported in patent US20060280787A1, “Pharmaceutical formulation of the tubulin inhibitor indibulin for oral administration with improved pharmacokinetic properties, and process for the manufacture thereof” (priority 2005, published 2006).
# Assays:
# [1] = Tolerability in preclinical experiments in rodents; assay type: in vivo; conditions: highly effective doses
# Source text: (§1) In vitro, Indibulin exerts significant antitumor activity against a variety of malignancies (e.g., prostate, brain, breast, pancreas, and colon). […] Based on its mechanism of action, it is expected to target all types of solid tumors. […] Another advantage for further development is its easy synthesis, in contrast to other tubulin-inhibitory compounds.
# [2] = Solubility of Indibulin in solvents; assay type: physicochemical
# Source text: (§2) Indibulin is obtained by chemical synthesis as a white crystalline powder. Its solubility in hydrophilic solvents is poor. […] Due to these properties, the bioavailability of pure Indibulin is very low, as is Indibulin's bioavailability in common pharmaceutical dosage forms, e.g., powder, granula, tablets or capsules.
# However, these organic solvents cannot be used for application in humans due to their toxicity.
# [3] = Bioavailability of pure Indibulin; assay type: in vivo
# Source text: as §2
# microtubules = experiment: Polymerization of microtubules in a cell-free system; assay type: biochemical
# Source text: (§3) Indibulin is a synthetic small molecule tubulin inhibitor with significant antitumor activity in vitro and in vivo. […] Furthermore, the molecule selectively blocks cell cycle progression at metaphase.
# [4] = tested on: microtubules in tumor cells; experiment: Polymerization of microtubules in tumor cells; assay type: cell-based
# Source text: as §3
# [5] = Neurological symptoms in animal experiments; assay type: in vivo, animals
# Source text: as §1
smiles,measurement,setting,value
"O=C(Nc1ccncc1)C(=O)c1cn(Cc2ccc(Cl)cc2)c2ccccc12 [Indibulin, N-(pyridine-4-yl)-[1-(4-chlorobenzyl)-indole-3-yl]glyoxylic acid amide]",tolerability,[1],very well tolerated
same,solubility in organic solvents,"[2]; dimethylformamide, dimethylsulfoxide and N-methylpyrrolidone",sufficient solubility
same,solubility in highly concentrated organic acids,[2]; roughly >50% w/v acetic acid or lactic acid,relatively good solvents
same,solubility in hydrophilic solvents,"[2]; water, methanol, ethanol or 2-propanol",practically insoluble
same,bioavailability,[3],very low
same,polymerization of microtubules,microtubules,inhibits polymerization of microtubules
same,polymerization of microtubules,[4],inhibits polymerization of microtubules
same,neurological symptoms,[5],No neurological symptoms
